In brackets after ≈: the same amount, converted by molar mass.
details: buffer; pH 7.4; 200.0 µM

Compared with `Clc1ccccc1Cc1noc(CN2CCN3CCCC3C2)n1` (stereo unspecified), `c1ccc(OCc2noc(CN3CC[C@@H]4CCCC[C@H]4C3)n2)cc1` is lower in solubility kinetic: greater than 49.9 µg/mL for the first, 6 µg/mL (≈ 18.3 µM) for the second.

Compared with `CCCCc1nc2sc3c(=O)[nH]cnc3c2c2c1CCCC2`, `O=C(CCCc1nc(-c2ccc(Cl)cc2)no1)NC1CCCCC1` is higher in solubility kinetic: less than 0.2 µg/mL for the first, 2.1 µg/mL (≈ 6.04 µM) for the second.

Going from `CCOc1ccc2[nH]cc(C(=O)NCc3ccccc3)c(=O)c2c1` to `COc1cccc(-c2cc(C(=O)NCc3ccco3)c3ccccc3n2)c1`, the solubility kinetic rises from 0.9 µg/mL (≈ 2.79 µM) to 11.6 µg/mL (≈ 32.4 µM) (13-fold).

Compared with `O=C(NCCOc1cccc2cccnc12)c1cccs1`, `Cc1ccc(NC(=O)COc2cccc3ccccc23)c(O)c1` is lower in solubility kinetic: greater than 44.8 µg/mL for the first, 3.8 µg/mL (≈ 12.4 µM) for the second.

`CC(C)c1c(O)nc(SCC(=O)N2CCCCC2)[nH]c1=O` and `Cc1cc(C)n2nc(SCC(=O)N3CCC(C(=O)O)CC3)nc2n1` cannot be ordered by solubility kinetic: greater than 46.7 µg/mL for the first, greater than 52.4 µg/mL for the second.

`CCc1[nH]c(C(=O)O)c(C)c1C(=O)OC` and `CCc1noc(C)c1C(=O)OCC(=O)NC(=O)c1ccccc1` cannot be ordered by solubility kinetic: greater than 31.7 µg/mL for the first, greater than 47.4 µg/mL for the second.

Compared with `COc1cccc(COC(=O)C2CCN(C(=O)c3ccccc3C)CC2)c1OC`, `CCOc1ccccc1NC(=O)COC(=O)C1CCC1` is lower in solubility kinetic: greater than 59.6 µg/mL for the first, 39.2 µg/mL (≈ 141 µM) for the second.

Going from `O=S(=O)(c1cccc(C(F)(F)F)c1)N1CCN(c2cnccn2)CC1` to `C=CCNC(=O)C1CCN(c2cnccn2)CC1`, the solubility kinetic rises from 25.1 µg/mL (≈ 67.4 µM) to greater than 36.9 µg/mL.

`O=C(CCC1CCN(Cc2ccccc2O)CC1)NC1CC1` and `O=C(c1cc2ccccc2cc1O)N1CCCC1` cannot be ordered by solubility kinetic: 42.6 µg/mL (≈ 141 µM) for the first, greater than 36.2 µg/mL for the second.

Compared with `CC1CC(C)CN(C(=O)CCCNC(=O)c2ccc(Cl)cc2)C1` (stereo unspecified), `Cc1cccc(NC(=O)CCNC(=O)c2ccccc2)c1` is lower in solubility kinetic: greater than 50.5 µg/mL for the first, 41.5 µg/mL (≈ 147 µM) for the second.

`COc1ccc(CCNC(=O)c2ccc([N+](=O)[O-])cc2)cc1` and `COc1ccc(CC(C)CC(=O)Nc2ccc(OC)cc2)cc1` (stereo unspecified) are within 1.5-fold of each other in solubility kinetic: 5.3 µg/mL (≈ 17.6 µM) for the first, 4.6 µg/mL (≈ 14.7 µM) for the second.

First: Cc1[nH]c(=O)[nH]c(=O)c1S(=O)(=O)Nc1ccc(S(N)(=O)=O)cc1
Second: NS(=O)(=O)c1ccc(NC(=S)NC(=O)C2CCCC2)cc1
The solubility kinetic of the first is lower: 48.8 µg/mL (≈ 135 µM) for the first, greater than 49.1 µg/mL for the second.

`OCC1(CO)COC(CCc2ccccc2)=N1` and `CCC(NC(=O)Cc1cccs1)c1ccccc1` (stereo unspecified) cannot be ordered by solubility kinetic: greater than 35.3 µg/mL for the first, greater than 38.9 µg/mL for the second.

First: Cl.OC(c1ccc(Cl)cc1)c1nccc2ccccc12 (stereo unspecified)
Second: O=C(Nc1ccc2ccccc2n1)c1ccccc1Cl
The solubility kinetic of the first is 28-fold higher: 31.1 µg/mL for the first, 1.1 µg/mL (≈ 3.89 µM) for the second.

First: Cc1nc2ccccc2n1Cc1ccccc1
Second: CC(C)(Cc1ccc(O)cc1)NC(=O)SCc1ccccc1
The solubility kinetic of the first is lower: 32.9 µg/mL (≈ 148 µM) for the first, greater than 47.3 µg/mL for the second.

Going from `COc1ccc(N2C(=O)Cc3ccccc3C2=O)cc1` to `O=C1NC(c2ccc(Cl)cc2)Oc2ccccc21` (stereo unspecified), the solubility kinetic falls from 39.3 µg/mL (≈ 147 µM) to 1.7 µg/mL (≈ 6.55 µM) (23-fold).

Compared with `Cc1cc(Br)ccc1OCCN1CCCC1.O=C(O)C(=O)O`, `Cc1cccc(Cl)c1OCCCn1ccnc1.O=C(O)C(=O)O` is lower in solubility kinetic: greater than 56.1 µg/mL for the first, 45.4 µg/mL for the second.

First: CC(=O)Nc1ccc(C(=O)COC(=O)c2cccs2)c(F)c1
Second: CC(=O)Nc1ccc(NCc2cccs2)cc1
The solubility kinetic of the first is lower: 9.6 µg/mL (≈ 29.9 µM) for the first, greater than 36.9 µg/mL for the second.

Compared with `COc1cc(NC(=S)N2CCOCC2)c(OC)cc1Cl`, `COc1ccc(CN2CCCCCC2)cc1OC` is lower in solubility kinetic: greater than 47.5 µg/mL for the first, 21.6 µg/mL (≈ 86.6 µM) for the second.

Compared with `Cc1cc(NC(=O)c2ccc(F)cc2)no1`, `CC(Oc1cccnc1[N+](=O)[O-])C(=O)Nc1ccc(F)cc1` (stereo unspecified) is higher in solubility kinetic: 20.7 µg/mL (≈ 94 µM) for the first, greater than 45.8 µg/mL for the second.

`CCOc1ccc(C2NC(=O)Cc3cc(OC)c(OC)cc32)cc1` (stereo unspecified) and `CCN1CCCC1Cn1cnc2c([nH]c3ccc(OC)cc32)c1=O` (stereo unspecified) cannot be ordered by solubility kinetic: greater than 49.1 µg/mL for the first, greater than 49 µg/mL for the second.

Compared with `COc1ccc(-c2cc(C(=O)N(C)Cc3nc4ccccc4c(=O)[nH]3)c3ccccc3n2)cc1OC`, `COc1cccc(OC)c1C(=O)Nc1cccc(S(=O)(=O)Nc2ccccc2Cl)c1` is 3.6-fold higher in solubility kinetic: 13.2 µg/mL (≈ 27.5 µM) for the first, 47.1 µg/mL (≈ 105 µM) for the second.

Compared with `O=C(Nc1cc([N+](=O)[O-])ccc1Cl)c1cccnc1`, `O=C(OCc1ccc([N+](=O)[O-])cc1Cl)c1cnccn1` is higher in solubility kinetic: 26.4 µg/mL (≈ 95.1 µM) for the first, greater than 44.1 µg/mL for the second.

Going from `O=S(=O)(c1ccc(Cl)s1)N1CCNCC1` to `N#Cc1ccc(S(=O)(=O)N2CCc3[nH]c4ccc(F)cc4c3C2)cc1`, the solubility kinetic falls from greater than 40 µg/mL to less than 0.3 µg/mL.

Compared with `CSc1ccccc1C(=O)C1CCCN(Cc2ccccn2)C1` (stereo unspecified), `COc1ccccc1NC(=S)N1CCCc2ccccc21` is 2-fold lower in solubility kinetic: 44.8 µg/mL (≈ 137 µM) for the first, 22.9 µg/mL (≈ 76.7 µM) for the second.

`Cc1ccc(S(=O)(=O)NC2CC(C)(C)NC(C)(C)C2)cc1C` and `CC1(C)CC(NC(=O)c2cc(Cl)ccc2Cl)CC(C)(C)N1` cannot be ordered by solubility kinetic: greater than 48.7 µg/mL for the first, greater than 49.4 µg/mL for the second.

Compared with `COc1ccc(-c2cc(C(=O)N3CCCC3)no2)cc1`, `Cc1cccc(N2CCN(C(=O)c3ccnn3C)CC2)c1C` is higher in solubility kinetic: 30.4 µg/mL (≈ 112 µM) for the first, greater than 44.8 µg/mL for the second.

First: O=C(Nc1nc2ccccc2[nH]1)c1ccc(Br)o1
Second: FC(F)(F)c1nc(NCc2cccnc2)c2ccccc2n1
The solubility kinetic of the first is 6-fold higher: 15.5 µg/mL (≈ 50.6 µM) for the first, 2.6 µg/mL (≈ 8.54 µM) for the second.

Compared with `CC1=NC(C)(C)Cc2cc(C)c(C)cc21.Cl`, `CCOC(=O)C1=C(C)OC(N)=C(C#N)C1c1cc(SCC)oc1C` (stereo unspecified) is lower in solubility kinetic: greater than 35.7 µg/mL for the first, 23.9 µg/mL (≈ 68.6 µM) for the second.

First: O=C(/C=C/c1ccccc1)Nc1cccc(S(=O)(=O)Nc2ccccc2F)c1
Second: O=C(/C=C/c1ccccc1)NCCc1c[nH]c2ccccc12
The solubility kinetic of the first is 20-fold lower: 1 µg/mL (≈ 2.52 µM) for the first, 19.7 µg/mL (≈ 67.8 µM) for the second.

`COc1ccc(OC)c(NC(=O)Nc2cccnc2)c1` and `COc1cccc(CNS(=O)(=O)c2csc(C(N)=O)c2)c1` cannot be ordered by solubility kinetic: greater than 41 µg/mL for the first, greater than 49 µg/mL for the second.

Going from `Cc1ccc(CNC(=O)COC(=O)c2ccc(S(=O)(=O)N3CCOCC3)cc2)cc1` to `O=C(COC(=O)c1ccc(F)c(S(=O)(=O)N2CCOCC2)c1)NCc1ccccc1`, the solubility kinetic rises from 6.5 µg/mL (≈ 15 µM) to greater than 65.5 µg/mL.

`C=CCn1c(SCC(C)=O)nnc1-c1ccc2ncccc2c1` and `CCCN(Cc1cc2cc(C)ccc2[nH]c1=O)C(=O)c1ccccn1` cannot be ordered by solubility kinetic: greater than 48.7 µg/mL for the first, greater than 50.3 µg/mL for the second.

`O=[N+]([O-])c1ccc(N2CCOCC2)cc1N1CCCCC1` and `CN1CCN(c2c([N+](=O)[O-])cnc3ccccc23)CC1.Cl` cannot be ordered by solubility kinetic: greater than 43.7 µg/mL for the first, greater than 46.3 µg/mL for the second.

First: CCN(CC(=O)Nc1c(F)cccc1F)C(=O)Cc1ccccc1
Second: O=C(/C=C/Nc1ccc(F)c(Cl)c1)c1ccccc1
The solubility kinetic of the first is higher: greater than 49.9 µg/mL for the first, 0.7 µg/mL (≈ 2.54 µM) for the second.

Compared with `N#Cc1ccc(OCC(=O)NNC(=S)NC(=O)C2CC2)cc1`, `CC(C)C(=O)NC(=S)Nc1ccc(S(=O)(=O)NC2CCCCC2)cc1` is lower in solubility kinetic: greater than 47.8 µg/mL for the first, 1 µg/mL (≈ 2.61 µM) for the second.

First: CC1(C)c2ccccc2N2CC(=O)N[C@@]21/C=C/C=C/c1ccccc1
Second: COc1ccc(CNC(=O)CN2C(=O)NC(c3ccccc3)(c3ccccc3)C2=O)cc1
The solubility kinetic of the first is 5-fold lower: 0.9 µg/mL (≈ 2.72 µM) for the first, 4.5 µg/mL (≈ 10.5 µM) for the second.

`CC(C)NCC(O)c1ccc(O)c(O)c1.Cl` (stereo unspecified) and `O=C1NCC(O)=C1C=Nc1ccccc1O` cannot be ordered by solubility kinetic: greater than 37.2 µg/mL for the first, greater than 32.7 µg/mL for the second.

`CN1C(=O)N(C)C2(C)CC1(C)N(C)C(=O)N2C` and `CC(=O)Nc1ccc(CN2CCN(CC=C(C)C)C(CCO)C2)cc1` (stereo unspecified) cannot be ordered by solubility kinetic: greater than 36 µg/mL for the first, greater than 51.8 µg/mL for the second.

Going from `O=C(Nc1nnc(C2CC2)s1)C1COc2ccccc2O1` (stereo unspecified) to `O=C(O)c1ccc(S(=O)(=O)NCC2CCCO2)cc1` (stereo unspecified), the solubility kinetic falls from greater than 45.5 µg/mL to 34.7 µg/mL (≈ 122 µM).

Compared with `CCOc1ccc(S(=O)(=O)N2CN(c3cccc(C(C)=O)c3)c3nc4ccccc4nc32)cc1`, `NC(=O)COC(=O)CC(c1ccccc1)c1ccccc1` is higher in solubility kinetic: 3.1 µg/mL (≈ 6.53 µM) for the first, greater than 42.5 µg/mL for the second.

`CCC(C)C(NC(N)=O)C(=O)NC1CCC(C)CC1` (stereo unspecified) and `CC(=O)N1CCN=C1SCc1cccc(C)c1` are within 1.5-fold of each other in solubility kinetic: 34.2 µg/mL (≈ 127 µM) for the first, 33.7 µg/mL (≈ 136 µM) for the second.

Going from `COC(=O)c1cnc(Oc2c(Cl)cc(N)cc2Cl)cc1C(F)(F)F` to `COc1cc(OC)nc(Oc2cccc(C(F)(F)F)c2)n1`, the solubility kinetic falls from 15.3 µg/mL (≈ 40.1 µM) to less than 0.3 µg/mL.

— PubChem BioAssay AID1996
